Experimental data from patent US10058525B2, “Application of chlorogenic acid in preparing medicines for treating lupus erythematosus” (SICHUAN JIUZHANG BIOLOGICAL SCIENCE AND TECHNOLOGY CO., LTD., priority 2015, dated 2018).

Key:
[1] = tested on: lupus erythematosus; assay: Screening medicines for treatment of lupus erythematosus; details: screening of extracts and potency constituents; no method given
[2] = tested on: ANA; assay: Serologic detection of ANA by immunofluorescence on HEp-2 cell sheets, serum of UV + LPS lupus model mice; type: in vivo, BALB/c mice; set-up: key: (+): positive; (−): negative; (++++): intense fluorescence; (+++): stronger fluorescence; (++): weeker fluorescence; details: intragastric
Protocol: The back of mice was shaved and acutely exposed to Ultraviolet of 2 h/d*3 d, with a distance of 30 cm. After exposure to UV, 2.5 mg/kg of LPS was administrated once by ip, and after 24 h, the model was successfully established; the mice in the normal control group received normal saline via ip. 24 h after injection of LPS (ip), medicines were given to the model mice by intragastric administration. Chlorogenic acid test groups received high, middle, and low doses of medicines, by intragastric administration at a respective dosage of 10 mg/kg*d, 20 mg/kg*d, and 40 mg/kg*d. The positive control group A received 2 mg/kg*d of artesunate by stomach perfusion, while the positive control group B received 1 mg/kg*d of prednisone by stomach perfusion. Mice in the model and normal control group all received 0.4 ml/mouse normal saline by gavage. After 15 days of administration, animals in each group were taken blood by separating eyeballs on days 14, 21, 28, and after cultured in water bath at 37° C. for 1 h, the blood sample was centrifugated at 2000 r/min for 5 min, to draw serum for use. On day 21, after blood collection, animals were sacrificed by dislocation, followed by collection of liver and kidney, and they were placed in fixative solutions of electron microscope and light microscrope, respectively. Serum of mice was diluted at 1:100 with special buffer solution of Shenzhen Hengjia, and then 200 μL of diluted serum was respectively added to the reactive tank with corresponding number, cultured in the incubator at 37° C. for 30 min, and washed with the buffer solution four times, 2 min for each time; 200 μL of diluted biotin goat anti-mouse IgG (1:100) was added, cultured in the incubator at 37° C. for 30 min, and then washed with the buffer solution four times, 2 min for each time; 100 μL of diluted HRP-avidin (1:100) was added, cultured in the incubator at 37° C. for 30 min, and then washed as mentioned-above; reactive solutions A and B were added till appearance of positive bands, then washed with the buffer solution. Compared with the standard bands of ENA polypeptide antibody spectrum in the same kit, if the positive bands appeared at 28/29,13.5 ku polypeptide; 15,16.5,38 kupolypeptide; 52 kupolypeptide and 47/48,45 kupolypeptide, that can be determined as anti-Sm, anti-Rib, anti-ssA, and anti-ssB positive antibody. Serum was diluted with PBS at 1:40, then 20-30 μL of diluted serum was dropped into the scrobiculus of HEp-2 cell sheets, each cell sheet for each group. In the process of dropping serum, it should be noted that the surface of cell sheet can not be touched. After addition of serum, cell sheet was placed in wet box and kept for 30 min at room temperature (25° C.). After 30 min, the cell sheet was taken out, and serum was carefully washed out with PBS, then carefully washed twice with PBS, 5 min for each time; after washing, the remained PBS was removed by special absorbent paper of […] company (In this process, it should be noted that becoming dry of cell substrates will affect the results). 20-30 μL of diluted (PBS, 1:100) FITC goat anti-mouse IgG was added by dropping, and then incubated in wet box at room temperature for 30 min. After washing with PBS, steps were same to above. The remained PBS was removed by absorbent paper, and 1-2 drops of fluorescent mounting media were added to the cell sheet. The cover glass was mounted, observed under Olympus BH-2 universal microscope, and then photographed.

Q: With `O=C(/C=C/c1ccc(O)c(O)c1)O[C@@H]1C[C@](O)(C(=O)O)C[C@@H](O)[C@H]1O` [Chlorogenic acid, 3-O-caffeoylquinic acid] as the molecule, how does the “inhibition on lupus erythematosus” value [1] read?
A: more obvious inhibition

Q: And the ANA ([2]; day 21, chlorogenic acid high dose)?
A: (++)

Q: What about the ANA ([2]; day 21, chlorogenic acid low dose) of the same molecule?
A: (+++)

Q: What about the ANA ([2]; day 21, chlorogenic acid middle dose) of the same molecule?
A: (++)

Q: And the ANA ([2]; day 28, chlorogenic acid high dose)?
A: (++)

Q: And the ANA ([2]; day 28, chlorogenic acid low dose)?
A: (+++)

Q: And the ANA ([2]; day 28, chlorogenic acid middle dose)?
A: (++)
